Data published in patent US8163691B2, “Compositions and methods for identifying agents which modulate PTEN function and PI-3 kinase pathways” (Indiana University Research & Research Corporation, priority 2000, dated 2012).
pIC50: −log10 of the molar value. “Also recorded” adds a separate entry of the source.

Columns and labels:
[1] = tested on: U87MG cells; assay: Orthotopic (intracranial) U87MG brain tumor model in nude mice; format: in vivo, mouse; settings: examined on day 42; DMSO controls 4/5 by day 25
Procedure: To determine whether PTEN exerts control over angiogenesis and/or the growth of glial tumors, an orthotopic brain tumor model was developed in which PTEN-deficient tumor cells were genetically manipulated in vitro and then stereotactically injected into the frontal cerebral cortex of nude mice. The U87MG cell line employed in these studies is derived from a patient diagnosed with glioblastoma multiforme, a highly malignant and uniformly fatal brain tumor. This tumor and other human glioblastomas and glioblastoma cell lines contain a mutation in both PTEN alleles (U87MG cells have a homozygous mutation in PTEN resulting in a null genotype). We also examined the effect of LY294002 on tumor growth and incidence of brain tumor in a nude mouse model. In a previous study, in vivo activity of LY294002 against an ovarian carcinoma was observed. […] In other words, the carcinoma was not assessed in its natural milieu. Hu et al., Clin. Can. Res. 6:880). […] In control mice treated with DMSO, 4/5 had grossly visible and/or histologically confirmed brain tumors by H & E analysis by day 25 after implantation, whereas in 0/5 mice treated with LY294002 had grossly detectable or histologic evidence of intracranial tumor when examined on day 42.

[2] = tested on: U87MG cells; assay: Subcutaneous U87MG tumor growth in nude mice; format: in vivo, mouse; settings: LY294002 100 mg/kg daily i.p.; control approximately 400 mm3
Procedure: LY294002 was administered at a dosage of 100 mg/kg delivered daily by intraperitoneal injection in a small volume of 100% DMSO for 2 weeks, beginning 2 days after tumor implantation. […] Control mice were injected with small volume ([…]) of 100% DMSO. Daily measurement of tumor volume was performed in 3 coordinates using calipers. To determine whether PI-3 kinase exerts control over angiogenesis or the growth of glial tumors in vivo the orthotopic brain tumor model described in Example I was utilized. To assess the effect of LY294002 on angiogenesis, we treated mice with LY294002 (100 mg/kg/dose×2 weeks) or DMSO as negative control. Tumor volumes were recorded daily (FIG. 15). On day 14 we stained cryostat sections from subcutaneous tumors for CD31 (PECAM). CD31 is an endothelial marker used to measure the microvessel density of these tumors. Microvessel density was assessed from multiple digitized images of CD31-stained tumor tissue at 100× magnification (3 fields were evaluated per tumor) and counted blindly for the number of CD31 positive microvessels per unit surface area as described (Weidner et al., (1991) N. Engl. J. Med. 324:1). […] Importantly, microvessel determinations were performed on day 7 after implantation to compare angiogenic activity of tumors of similar size. […]

[3] = Tolerability of treatment in tumor-bearing mice; format: in vivo, mouse; settings: 100 mg/kg daily i.p. in 100% DMSO for 2 weeks
Procedure: LY294002 was administered at a dosage of 100 mg/kg delivered daily by intraperitoneal injection in a small volume of 100% DMSO for 2 weeks, beginning 2 days after tumor implantation. […] Control mice were injected with small volume ([…]) of 100% DMSO. Daily measurement of tumor volume was performed in 3 coordinates using calipers.

[4] = tested on: U87MG cells; assay: Microvessel density (CD31 positive microvessels) in subcutaneous U87MG tumor tissue; format: in vivo, mouse; settings: LY294002 100 mg/kg/dose x 2 weeks i.p.; controls (DMSO) 50±6
Procedure: Microvessel density (MVD) was determined for each brain tumor as described in Example I by CD31 staining, performed on cryostat sections (7 μm), fixed in acetone, blocked in 1% goat serum and stained with anti-CD31 antibody (Pharmingen, #01951D). Antibody staining was visualized with peroxidase-conjugated anti-mouse antibody and counter stained with hematoxylin. A negative control was performed on each tumor tissue stained with mouse IgG. Two sections from each tumor were scanned under low power magnification (40×) to identify areas of highest CD31 positive vessel density (Weidner et al. 1991), followed by digitization of 5 fields from this area. The digitized images representing one 100× field were counted for the number of CD31 positive vascular elements. Data was collected independently by two researchers in a blind study. The average number of microvessels per digitized 100× field was determined for 5 tumors per experimental group and analyzed by Student's t-test. […] Tumor volumes were recorded daily (FIG. 15). […] Microvessel density was assessed from multiple digitized images of CD31-stained tumor tissue at 100× magnification (3 fields were evaluated per tumor) and counted blindly for the number of CD31 positive microvessels per unit surface area as described (Weidner et al., (1991) N. Engl. J. Med. 324:1). […]

[5] = tested on: Cbl; assay: Tyrosine phosphorylation of Cbl after stimulation with sensitized sRBCs (Cbl IP, anti-phosphotyrosine immunoblot); format: cell-based, mouse
[6] = tested on: J774A.1 cells; assay: Fcγ receptor mediated phagocytosis of IgG sensitized sRBCs by J774A.1 cells (phagocytic index); format: cell-based, mouse
[7] = tested on: Glioblastoma cells engineered to stably express wild-type PTEN; assay: MTT viable cell assay, chemosensitivity of glioblastoma cells stably expressing wild-type PTEN; format: cell-based, human
Procedure: (§1) MTT assays. Cells were seeded (6000/well) into a 96 well plate. Twenty-four hours later the growth medium was changed to 1% serum and other reagents were added as described. Treatments proceeded for 24-72 h. At each time point the MTT assay was performed. MTT (10 ul of a 5 mg/ml stock solution dissolved in RPMI medium) is added to each well of cultures 4 hours before quantitation of viable cell number by measuring absorbance in each well at 650 nm with a microplate reader (Molecular Devises,) Agents added to cell LY294002 alone or in combination with etoposide. In addition, comparison was made between U87MG cells null for PTEN and reconstituted with PTEN protein. The absorbance of each well was measured at […] with a microplate reader.

[8] = tested on: U87MG glioblastoma cells, null for PTEN; assay: MTT viable cell assay, chemosensitivity of parental PTEN-null U87MG glioblastoma cells; format: cell-based, human
Procedure: as §1

Structure (SMILES): O=c1cc(N2CCOCC2)oc2c(-c3ccccc3)cccc12 [LY294002]
- mice with grossly detectable or histologic evidence of intracranial tumor [1]: 0/5
- tumor size at the time of microvessel analysis [2]: approximately 35 mm3
- untoward effects in treated mice [3]: No untoward effects
- microvessel density (MVD), CD31 positive microvessels [4]: 22±5

Structure (SMILES): Cc1ccc(-c2nn(C(C)(C)C)c3ncnc(N)c23)cc1 [PP1]
- tyrosine phosphorylation of Cbl induced by sensitized sRBCs ([5]; PP1 10 μM, stimulation with sRBCs 5 minutes): inhibited significantly; also recorded: abrogated
- dose dependence of the effect on Cbl tyrosine phosphorylation ([5]; data not shown): dose dependent
- basal tyrosine phosphorylation levels of Cbl ([5]; resting cells): suppressed the basal tyrosine phosphorylation levels of Cbl
- inhibition of phagocytosis of IgG coated sRBCs (phagocytic index) ([6]; PP1 10 μM, 1 h pretreatment, target to effector ratio 100:1): completely abrogated phagocytosis; also recorded: blocks the phagocytosis significantly
- dose dependence of inhibition of phagocytosis ([6]; PP1 1, 5, 10 μM): dose dependent manner
- inhibition of phagocytosis of sensitized sRBCs ([6]; preincubation of the cells, concentration not given): inhibit this response

Structure (SMILES): COc1cc([C@@H]2c3cc4c(cc3[C@@H](O[C@@H]3O[C@@H]5CO[C@@H](C)O[C@H]5[C@H](O)[C@H]3O)[C@H]3COC(=O)[C@H]23)OCO4)cc(OC)c1O [etoposide]
- increase in sensitivity to etoposide, wild-type PTEN versus PTEN-null cells ([7]; 0.047 μM versus 4.7 μM): 100 fold
- pIC50 ([7]; Homo sapiens, cells stably expressing wild-type PTEN, read-out: etoposide required to achieve a 50% cell kill): 7.33
- pIC50 ([8]; Homo sapiens, U-87 MG, U87MG null for PTEN, or cells stably expressing catalytically inactive PTEN (R130M cells), read-out: etoposide required to achieve a 50% cell kill): 5.33
- cytotoxic activity of etoposide alone ([8]; etoposide 1 uM): minimal cytotoxic activity
